Data reported in ChEMBL document CHEMBL3880386, “Combination comprising the MEK inhibitor N-{3-[3-cyclopropyl-5-(2-fluoro-4-iodo- phenylamino)-6,8-dimethyl-2,4,7-trioxo-3,4,6,7-tetrahydro-2H-pyrido[4,3-d]pyrimidin-1-yl]phenyl}acetamide and the Akt inhibitor N-{(1S)-2-amino-1-[(3-fluorophenyl)methyl]ethyl}-5-chloro-4-(4-chloro-1- …” (2014).

Experiments:
[1] = Growth inhibition of human EFM19 cells at 1:10 molar ratio of compound in presence of N-{3-[3-cyclopropyl-5-(2-fluoro-4-iodo-phenylamino)-6,8-dimethyl- 2,4,7-trioxo-3,4,6,7-tetrahydro-2H-pyrido[4,3-d]pyrimidin-1-yl]phenyl}acetamide incubated for 72 hrs by Cell-titer-Glo reagent based assay; format: functional; conditions: EFM-19, 72 h
[2] = Growth inhibition of human RKO cells at 1:10 molar ratio of compound in presence of N-{3-[3-cyclopropyl-5-(2-fluoro-4-iodo-phenylamino)-6,8-dimethyl- 2,4,7-trioxo-3,4,6,7-tetrahydro-2H-pyrido[4,3-d]pyrimidin-1-yl]phenyl}acetamide incubated for 72 hrs by Cell-titer-Glo reagent based assay; format: functional
[3] = Growth inhibition of human DLD1 cells at 1:10 molar ratio of compound in presence of N-{3-[3-cyclopropyl-5-(2-fluoro-4-iodo-phenylamino)-6,8-dimethyl- 2,4,7-trioxo-3,4,6,7-tetrahydro-2H-pyrido[4,3-d]pyrimidin-1-yl]phenyl}acetamide incubated for 72 hrs by Cell-titer-Glo reagent based assay; format: functional; conditions: DLD-1, 72 h
[4] = Growth inhibition of human COLO205 cells at 1:10 molar ratio of compound in presence of N-{3-[3-cyclopropyl-5-(2-fluoro-4-iodo-phenylamino)-6,8-dimethyl- 2,4,7-trioxo-3,4,6,7-tetrahydro-2H-pyrido[4,3-d]pyrimidin-1-yl]phenyl}acetamide incubated for 72 hrs by Cell-titer-Glo reagent based assay; format: functional; conditions: COLO 205, 72 h
[5] = Growth inhibition of human HT-29 cells at 1:10 molar ratio of compound in presence of N-{3-[3-cyclopropyl-5-(2-fluoro-4-iodo-phenylamino)-6,8-dimethyl- 2,4,7-trioxo-3,4,6,7-tetrahydro-2H-pyrido[4,3-d]pyrimidin-1-yl]phenyl}acetamide incubated for 72 hrs by Cell-titer-Glo reagent based assay; format: functional; conditions: HT-29, 72 h
[6] = Growth inhibition of human SW480 cells at 1:10 molar ratio of compound in presence of N-{3-[3-cyclopropyl-5-(2-fluoro-4-iodo-phenylamino)-6,8-dimethyl- 2,4,7-trioxo-3,4,6,7-tetrahydro-2H-pyrido[4,3-d]pyrimidin-1-yl]phenyl}acetamide incubated for 72 hrs by Cell-titer-Glo reagent based assay; format: functional; conditions: SW480, 72 h
[7] = Growth inhibition of human NCI-H1355 cells at 1:10 molar ratio of compound in presence of N-{3-[3-cyclopropyl-5-(2-fluoro-4-iodo-phenylamino)-6,8-dimethyl- 2,4,7-trioxo-3,4,6,7-tetrahydro-2H-pyrido[4,3-d]pyrimidin-1-yl]phenyl}acetamide incubated for 72 hrs by Cell-titer-Glo reagent based assay; format: functional; conditions: NCI-H1355, 72 h
[8] = Growth inhibition of human NCI-H1792 cells at 1:10 molar ratio of compound in presence of N-{3-[3-cyclopropyl-5-(2-fluoro-4-iodo-phenylamino)-6,8-dimethyl- 2,4,7-trioxo-3,4,6,7-tetrahydro-2H-pyrido[4,3-d]pyrimidin-1-yl]phenyl}acetamide incubated for 72 hrs by Cell-titer-Glo reagent based assay; format: functional; conditions: NCI-H1792, 72 h
[9] = Growth inhibition of human DLD1 cells at 1:10 molar ratio of compound in presence of N-{(1S)-2-amino-1-[(3-fluorophenyl)methyl]ethyl}-5-chloro-4-(4-chloro-1-methyl-1H-pyrazol-5-yl)-2-thiophenecar- boxamide incubated for 72 hrs by Cell-titer-Glo reagent based assay; format: functional; conditions: DLD-1, 72 h
[10] = Growth inhibition of human SW837 cells at 1:10 molar ratio of compound in presence of N-{(1S)-2-amino-1-[(3-fluorophenyl)methyl]ethyl}-5-chloro-4-(4-chloro-1-methyl-1H-pyrazol-5-yl)-2-thiophenecar- boxamide incubated for 72 hrs by Cell-titer-Glo reagent based assay; format: functional; conditions: SW837, 72 h
[11] = Growth inhibition of human SW1463 cells at 1:10 molar ratio of compound in presence of N-{(1S)-2-amino-1-[(3-fluorophenyl)methyl]ethyl}-5-chloro-4-(4-chloro-1-methyl-1H-pyrazol-5-yl)-2-thiophenecar- boxamide incubated for 72 hrs by Cell-titer-Glo reagent based assay; format: functional; conditions: SW1463, 72 h
[12] = Growth inhibition of human SW1573 cells at 1:10 molar ratio of compound in presence of N-{(1S)-2-amino-1-[(3-fluorophenyl)methyl]ethyl}-5-chloro-4-(4-chloro-1-methyl-1H-pyrazol-5-yl)-2-thiophenecar- boxamide incubated for 72 hrs by Cell-titer-Glo reagent based assay; format: functional; conditions: SW1573, 72 h
[13] = Growth inhibition of human HOP62 cells at 1:10 molar ratio of compound in presence of N-{(1S)-2-amino-1-[(3-fluorophenyl)methyl]ethyl}-5-chloro-4-(4-chloro-1-methyl-1H-pyrazol-5-yl)-2-thiophenecar- boxamide incubated for 72 hrs by Cell-titer-Glo reagent based assay; format: functional; conditions: HOP-62, 72 h
[14] = Growth inhibition of human HCC827 cells at 1:10 molar ratio of compound in presence of N-{(1S)-2-amino-1-[(3-fluorophenyl)methyl]ethyl}-5-chloro-4-(4-chloro-1-methyl-1H-pyrazol-5-yl)-2-thiophenecar- boxamide incubated for 72 hrs by Cell-titer-Glo reagent based assay; format: functional; conditions: HCC827, 72 h
[15] = Growth inhibition of human LS1034 cells assessed combination index at 1:10 molar ratio of compound in presence of N-{(1S)-2-amino-1-[(3-fluorophenyl)methyl]ethyl}-5-chloro-4-(4-chloro-1-methyl-1H-pyrazol-5-yl)-2-thiophenecar- boxamide incubated for 72 hrs by Cell-titer-Glo reagent based assay; format: functional, LS-1034
[16] = Growth inhibition of human COR-L23 cells assessed combination index at 1:10 molar ratio of compound in presence of N-{(1S)-2-amino-1-[(3-fluorophenyl)methyl]ethyl}-5-chloro-4-(4-chloro-1-methyl-1H-pyrazol-5-yl)-2-thiophenecar- boxamide incubated for 72 hrs by Cell-titer-Glo reagent based assay; format: functional
[17] = Growth inhibition of human NCI-H1355 cells assessed combination index at 1:10 molar ratio of compound in presence of N-{(1S)-2-amino-1-[(3-fluorophenyl)methyl]ethyl}-5-chloro-4-(4-chloro-1-methyl-1H-pyrazol-5-yl)-2-thiophenecar- boxamide incubated for 72 hrs by Cell-titer-Glo reagent based assay; format: functional
[18] = Growth inhibition of human NCI-H1792 cells assessed combination index at 1:10 molar ratio of compound in presence of N-{(1S)-2-amino-1-[(3-fluorophenyl)methyl]ethyl}-5-chloro-4-(4-chloro-1-methyl-1H-pyrazol-5-yl)-2-thiophenecar- boxamide incubated for 72 hrs by Cell-titer-Glo reagent based assay; format: functional
[19] = Growth inhibition of human Calu6 cells assessed combination index at 1:10 molar ratio of compound in presence of N-{(1S)-2-amino-1-[(3-fluorophenyl)methyl]ethyl}-5-chloro-4-(4-chloro-1-methyl-1H-pyrazol-5-yl)-2-thiophenecar- boxamide incubated for 72 hrs by Cell-titer-Glo reagent based assay; format: functional, Calu-6
[20] = Growth inhibition of human NCI-H727 cells assessed combination index at 1:10 molar ratio of compound in presence of N-{(1S)-2-amino-1-[(3-fluorophenyl)methyl]ethyl}-5-chloro-4-(4-chloro-1-methyl-1H-pyrazol-5-yl)-2-thiophenecar- boxamide incubated for 72 hrs by Cell-titer-Glo reagent based assay; format: functional

SMILES | IC50 [1] | IC50 [2] | IC50 [3] | IC50 [4] | IC50 [5] | IC50 [6] | IC50 [7] | IC50 [8] | IC50 [9] | IC50 [10] | IC50 [11] | IC50 [12] | IC50 [13] | IC50 [14] | CI [15] | CI [16] | CI [17] | CI [18] | CI [19] | CI [20]
Cn1ncc(Cl)c1-c1cc(C(=O)N[C@H](CN)Cc2cccc(F)c2)sc1Cl [AFURESERTIB] | 300 nM | 54 nM | 932 nM | 9 nM | 15 nM | 259 nM | 268 nM | 374 nM | – | – | – | – | – | – | – | – | – | – | – | –
CC(=O)Nc1cccc(-n2c(=O)n(C3CC3)c(=O)c3c(Nc4ccc(I)cc4F)n(C)c(=O)c(C)c32)c1 [TRAMETINIB] | – | – | – | – | – | – | – | – | 93 nM | 25 nM | 4 nM | 38 nM | 50 nM | 40 nM | 0.84 | 0.17 | 0.57 | 0.73 | 0.79 | 1.09
